The experiment addresses T1, human TRPA1 (Homo sapiens, UniProt O75762).
T1 construct: expressed in transfected cells; host or cells: Human embryonic kidney-derived 293T cells, transiently transfected with the pcDNA3.1/zeo(+) human TRPA1 plasmid
Kind of experiment: Measurement of TRPA1 antagonist activity (intracellular calcium increase, FLIPR, allylisothiocyanate stimulation). In kind it is cell-based. The conditions noted are these: 293T cells transfected with human TRPA1; allylisothiocyanate 20 μM; concentration for 50% inhibitory rate; read-out: antagonism hTRPA1. From the text: Measurement of TRPA1 Antagonist Activity
Human TRPA1 Expression Plasmid
As cDNA encoding human TRPA1 (GenBank accession No. […]), a commercially available product was purchased (manufactured by Kazusa DNA Research Institute, clone No.: pFN21AB7348, item No.: FHC07217). Using this as a template, full-length human TRPA1 gene was amplified using the primer sequences shown below, by reaction using DNA polymerase (manufactured by Stratagene, trade name: PfuUltra High-Fidelity DNA Polymerase).
A recognition site (underlined) of restriction enzyme HindIII was added to the 5′ side, and XbaI site (underlined) was added to the 3′ side, and GTT of the template sequence was changed to termination codon TAG (bold). The obtained double stranded DNA was enzyme-digested with HindIII and XbaI, and introduced into a multicloning site of expression plasmid pcDNA3.1/zeo(+) (manufactured by Invitrogen) to give a human TRPA1 expression plasmid.
Human embryonic kidney-derived 293T cells were cultured in Dulbecco's Modified Eagle Medium containing 10% fetal bovine serum, 10 unit penicillin, and 10 μg streptomycin, plated on a petri dish having a diameter of 10 cm at 3×10^6 cells, and cultured for 24 hr. A medium containing a reduced amount of serum (manufactured by Invitrogen, trade name: OPTI-MEM, 600 μL), a gene insertion reagent (manufactured by Mirus Bio, trade name: Mirus TransIT-293, 18 μL), and human TRPA1 expression plasmid (6 μg) were mixed, the total amount of the mixture was added to the cells on the petri dish to allow for gene transfer. The cells were recovered about 8 hr later, plated on a poly-D-lysine coated 384 well black/clear bottom plate at 7,500-12,000 cells/well, and cultured overnight.
Measurement of Intracellular Calcium Increase
The 384 well plate was recovered, and the medium was removed. A calcium-bonded fluorescent indicator (manufactured by Molecular Device, trade name: Calcium4 Assay Kit, 40 μL) dissolved in assay buffer (1×HBSS, 20 mM HEPES, pH 7.2) was added, and the cells were stained in a 37° C. incubator for 1 hr. The cells were taken out at room temperature and left standing for 15 min or more. A test substance (10 μL) was added by a 384 well type dispenser, and the mixture was incubated at room temperature for 10 min. Then, allylisothiocyanate (12.5 μL) at a final concentration of 20 μM was added by a fluorescence imaging plate reader (manufactured by Molecular Device, FLIPR), and changes in the relative fluorescence intensity were measured for 5 min.
Test Substance Preparation
The test substance was dissolved in dimethyl sulfoxide and serially diluted with an assay buffer containing 0.1% bovine serum albumin (1×HBSS, 20 mM HEPES, pH 7.2) to a 5-fold concentration of the evaluation concentration. Allylisothiocyanate, which is a known TRPA1 activator, was dissolved in dimethyl sulfoxide to 100 mM, and further diluted 5-fold (100 μM) of the final concentration, like the test substance.
Calculation of Antagonist Activity
Under the test substance-free conditions, the maximum variation range of the fluorescence intensity before and after allylisothiocyanate stimulation was defined to be 100% activity rate, and the variation range before and after buffer stimulation was defined as 0% activity rate. The activity rate on addition of the test substance was determined, and the numerical value obtained by subtracting the activity rate from 100 was defined to be an inhibitory rate. 1050, which is the concentration of the test substance necessary for reaching the 50% inhibitory rate, was calculated from the sigmoid approximate curve by a spreadsheet software Excel-Fit.
T1 sequence (O75762 whole entry): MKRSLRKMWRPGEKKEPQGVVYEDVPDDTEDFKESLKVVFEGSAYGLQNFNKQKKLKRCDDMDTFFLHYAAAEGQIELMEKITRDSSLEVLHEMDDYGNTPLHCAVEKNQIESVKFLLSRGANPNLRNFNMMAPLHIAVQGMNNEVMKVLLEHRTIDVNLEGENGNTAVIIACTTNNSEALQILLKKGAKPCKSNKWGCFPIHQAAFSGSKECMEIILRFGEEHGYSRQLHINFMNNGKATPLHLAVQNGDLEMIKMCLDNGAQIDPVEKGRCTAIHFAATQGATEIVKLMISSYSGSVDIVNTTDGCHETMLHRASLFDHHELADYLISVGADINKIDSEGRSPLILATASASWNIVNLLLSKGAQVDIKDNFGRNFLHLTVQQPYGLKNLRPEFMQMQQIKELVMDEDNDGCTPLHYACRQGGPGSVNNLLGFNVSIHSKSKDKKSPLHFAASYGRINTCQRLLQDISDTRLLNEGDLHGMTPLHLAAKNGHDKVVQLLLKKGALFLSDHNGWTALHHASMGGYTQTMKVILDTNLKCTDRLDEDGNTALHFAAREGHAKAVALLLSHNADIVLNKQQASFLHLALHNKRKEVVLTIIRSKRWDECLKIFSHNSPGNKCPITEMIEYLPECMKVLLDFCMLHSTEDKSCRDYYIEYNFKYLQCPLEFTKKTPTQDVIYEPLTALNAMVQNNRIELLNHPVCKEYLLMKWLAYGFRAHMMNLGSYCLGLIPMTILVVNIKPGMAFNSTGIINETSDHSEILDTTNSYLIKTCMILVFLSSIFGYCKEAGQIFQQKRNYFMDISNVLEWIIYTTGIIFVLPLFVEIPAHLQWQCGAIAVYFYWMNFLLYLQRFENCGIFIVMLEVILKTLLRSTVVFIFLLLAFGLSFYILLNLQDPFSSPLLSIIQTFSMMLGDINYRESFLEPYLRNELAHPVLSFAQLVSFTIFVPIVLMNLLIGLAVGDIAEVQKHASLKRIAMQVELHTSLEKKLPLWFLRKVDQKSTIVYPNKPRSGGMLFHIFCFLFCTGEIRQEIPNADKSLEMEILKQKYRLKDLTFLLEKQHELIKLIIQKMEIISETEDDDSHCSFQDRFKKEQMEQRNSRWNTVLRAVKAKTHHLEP
For `COc1ccc(OCc2ccc(CNC(=O)[C@@H]3CCCN3S(=O)(=O)c3ccc(Cl)s3)cc2)cc1` [Example 45, (2S)-1-(5-chlorothiophene-2-sulfonyl)-N-({4-[(4-methoxy-phenoxy)methyl]phenyl}methyl)pyrrolidine-2-carboxamide], the IC50 is 670 nM.
To `O=C(NCc1ccc(COc2ccc(F)cc2)cc1)[C@@H]1CCCN1S(=O)(=O)c1ccc(Cl)s1` [Example 46, (2S)-1-(5-chlorothiophene-2-sulfonyl)-N-({4-[(4-fluoro-phenoxy)methyl]phenyl}methyl)pyrrolidine-2-carboxamide] belongs 390 nM.
As for `O=C(NCc1ccc(COc2ccc(Cl)cc2)cc1)[C@@H]1CCCN1S(=O)(=O)c1ccc(Cl)s1` [Example 47, (2S)-N-({4-[(4-chlorophenoxy)methyl]phenyl}methyl)-1-(5-chlorothiophene-2-sulfonyl)pyrrolidine-2-carboxamide], the IC50 worked out at 620 nM.
For `COC(=O)c1ccc(OCc2ccc(CNC(=O)[C@@H]3CCCN3S(=O)(=O)c3ccc(Cl)s3)cc2)cc1` [Example 48, methyl 4-((4-({[(2S)-1-(5-chlorothiophene-2-sulfonyl)pyrrolidine-2-carbonyl]amino}methyl)phenyl)methoxy)benzoate], the IC50 was 630 nM.
As to `N#Cc1ccc(OCc2ccc(CNC(=O)[C@@H]3CCCN3S(=O)(=O)c3ccc(Cl)s3)cc2)cc1` [Example 49, (2S)-1-(5-chlorothiophene-2-sulfonyl)-N-({4-[(4-cyano-phenoxy)methyl]phenyl}methyl)pyrrolidine-2-carboxamide], the IC50 is 2100 nM.
For the compound `O=C(NCc1ccc(COc2cccc(C(F)(F)F)c2)cc1)[C@@H]1CCCN1S(=O)(=O)c1ccc(Cl)s1` [Example 50], the IC50 was 242 nM.
Regarding `CC(C)(C)Oc1ccc(OCc2ccc(CNC(=O)[C@@H]3CCCN3S(=O)(=O)c3ccc(Cl)s3)cc2)cc1` [Example 51, (2S)-N-({4-[(4-tert-butoxyphenoxy)methyl]phenyl}methyl)-1-(5-chlorothiophene-2-sulfonyl)pyrrolidine-2-carboxamide], the IC50 came out at 630 nM.
For the compound `O=C(NCc1ccc(COc2cccc(OC(F)(F)F)c2)cc1)[C@@H]1CCCN1S(=O)(=O)c1ccc(Cl)s1` [Example 52, (2S)-1-(5-chlorothiophene-2-sulfonyl)-N-((4-{[3-(trifluoro-methoxy)phenoxy]methyl}phenyl)methyl)pyrrolidine-2-carboxamide], the IC50 turned out to be 210 nM.
Regarding `Cc1cccc(OCc2ccc(CNC(=O)[C@@H]3CCCN3S(=O)(=O)c3ccc(Cl)s3)cc2)c1` [Example 53, (2S)-1-(5-chlorothiophene-2-sulfonyl)-N-({4-[(3-methyl-phenoxy)methyl]phenyl}methyl)pyrrolidine-2-carboxamide], the IC50 turned out to be 500 nM.
As to `COc1cccc(OCc2ccc(CNC(=O)[C@@H]3CCCN3S(=O)(=O)c3ccc(Cl)s3)cc2)c1` [Example 54, (2S)-1-(5-chlorothiophene-2-sulfonyl)-N-({4-[(3-methoxy-phenoxy)methyl]phenyl}methyl)pyrrolidine-2-carboxamide], the IC50 was 550 nM.
Consider `O=C(NCc1ccc(COc2cccc(F)c2)cc1)[C@@H]1CCCN1S(=O)(=O)c1ccc(Cl)s1` [Example 55, (2S)-1-(5-chlorothiophene-2-sulfonyl)-N-({4-[(3-fluoro-phenoxy)methyl]phenyl}methyl)pyrrolidine-2-carboxamide], for which the IC50 was determined as 230 nM.
On to `O=C(NCc1ccc(COc2cccc(Cl)c2)cc1)[C@@H]1CCCN1S(=O)(=O)c1ccc(Cl)s1` [Example 56, (2S)-N-({4-[(3-chlorophenoxy)methyl]phenyl}methyl)-1-(5-chlorothiophene-2-sulfonyl)pyrrolidine-2-carboxamide], for which the IC50 is 250 nM.
Turning to `O=C(NCc1ccc(COc2cc(F)cc(F)c2)cc1)[C@@H]1CCCN1S(=O)(=O)c1ccc(Cl)s1` [Example 57, (2S)-1-(5-chlorothiophene-2-sulfonyl)-N-({4-[(3,5-difluoro-phenoxy)methyl]phenyl}methyl)pyrrolidine-2-carboxamide], the IC50 is 310 nM.
As for `COC(=O)c1cccc(OCc2ccc(CNC(=O)[C@@H]3CCCN3S(=O)(=O)c3ccc(Cl)s3)cc2)c1` [Example 58, methyl 3-((4-({[(2S)-1-(5-chlorothiophene-2-sulfonyl)pyrrolidine-2-carbonyl]amino}methyl)phenyl)methoxy)benzoate], the IC50 was found to be 310 nM.
For `CN(C)c1cccc(OCc2ccc(CNC(=O)[C@@H]3CCCN3S(=O)(=O)c3ccc(Cl)s3)cc2)c1` [Example 59, (2S)-1-(5-chlorothiophene-2-sulfonyl)-N-((4-{[3-(dimethyl-amino)phenoxy]methyl}phenyl)methyl)pyrrolidine-2-carboxamide], the IC50 turned out to be 838 nM.
In the case of `O=C(NCc1ccc(COc2ccccc2C(F)(F)F)cc1)[C@@H]1CCCN1S(=O)(=O)c1ccc(Cl)s1` [Example 60, (2S)-1-(5-chlorothiophene-2-sulfonyl)-N-((4-{[2-(trifluoro-methyl)phenoxy]methyl}phenyl)methyl)pyrrolidine-2-carboxamide], the IC50 worked out at 420 nM.
On to `Cc1ccccc1OCc1ccc(CNC(=O)[C@@H]2CCCN2S(=O)(=O)c2ccc(Cl)s2)cc1` [Example 61, (2S)-1-(5-chlorothiophene-2-sulfonyl)-N-({4-[(2-methyl-phenoxy)methyl]phenyl}methyl)pyrrolidine-2-carboxamide], for which the IC50 was 190 nM.
Consider `COc1ccccc1OCc1ccc(CNC(=O)[C@@H]2CCCN2S(=O)(=O)c2ccc(Cl)s2)cc1` [Example 62, (2S)-1-(5-chlorothiophene-2-sulfonyl)-N-({4-[(2-methoxy-phenoxy)methyl]phenyl}methyl)pyrrolidine-2-carboxamide], for which the IC50 was 1100 nM.
For `O=C(NCc1ccc(COc2ccccc2F)cc1)[C@@H]1CCCN1S(=O)(=O)c1ccc(Cl)s1` [Example 63, (2S)-1-(5-chlorothiophene-2-sulfonyl)-N-({4-[(2-fluoro-phenoxy)methyl]phenyl}methyl)pyrrolidine-2-carboxamide], the IC50 came out at 440 nM.
For `O=C(NCc1ccc(COc2ccccc2Cl)cc1)[C@@H]1CCCN1S(=O)(=O)c1ccc(Cl)s1` [Example 64, (2S)-N-({4-[(2-chlorophenoxy)methyl]phenyl}methyl)-1-(5-chlorothiophene-2-sulfonyl)pyrrolidine-2-carboxamide], the IC50 was 480 nM.
As for `O=C(NCc1ccc(COc2c(F)cccc2F)cc1)[C@@H]1CCCN1S(=O)(=O)c1ccc(Cl)s1` [Example 65, (2S)-1-(5-chlorothiophene-2-sulfonyl)-N-({4-[(2,6-difluoro-phenoxy)methyl]phenyl}methyl)pyrrolidine-2-carboxamide], the IC50 came to 130 nM.
Turning to `COC(=O)c1ccccc1OCc1ccc(CNC(=O)[C@@H]2CCCN2S(=O)(=O)c2ccc(Cl)s2)cc1` [Example 66, methyl 2-((4-({[(2S)-1-(5-chlorothiophene-2-sulfonyl)pyrrolidine-2-carbonyl]amino}methyl)phenyl)methoxy)benzoate], the IC50 was determined as 780 nM.
On to `O=C(NCc1ccc(COc2cncc(Cl)c2)cc1)[C@@H]1CCCN1S(=O)(=O)c1ccc(Cl)s1` [Example 67, (2S)-N-({4-[(5-chloro-3-pyridyl)oxymethyl]phenyl}methyl)-1-(5-chlorothiophene-2-sulfonyl)pyrrolidine-2-carboxamide], for which the IC50 came to 730 nM.
Regarding `O=C(NCc1ccc(COc2ccc3ncccc3c2)cc1)[C@@H]1CCCN1S(=O)(=O)c1ccc(Cl)s1` [Example 68, (2S)-1-(5-chlorothiophene-2-sulfonyl)-N-{[4-(6-quinolyloxy-methyl)phenyl]methyl}pyrrolidine-2-carboxamide], the IC50 was 4400 nM.
As to `O=C(NCc1ccc(COc2cc3ccccc3cn2)cc1)[C@@H]1CCCN1S(=O)(=O)c1ccc(Cl)s1` [Example 69], the IC50 was 1800 nM.
